Assay results from ChEMBL document CHEMBL4732190, “Identification of Potent and Long-Acting Single-Chain Peptide Mimetics of Human Relaxin-2 for Cardiovascular Diseases” (J Med Chem, 2021).
Where a SMILES comes first, the peptide text is derived from it.

Columns and labels:
[1] = biological target: T1, Relaxin receptor 1 (Homo sapiens) (UniProt Q9HBX9); experiment: Agonist activity at RXFP1 endogenously expressed in human OVCAR-5 cells assessed as increase in IBMX-induced cAMP accumulation pretreated with IBMX for 40 mins followed by compound addition and measured after 30 mins by HTRF assay relative to relaxin; assay type: functional, cell-based; conditions: filed as agonist
T1 sequence (whole entry): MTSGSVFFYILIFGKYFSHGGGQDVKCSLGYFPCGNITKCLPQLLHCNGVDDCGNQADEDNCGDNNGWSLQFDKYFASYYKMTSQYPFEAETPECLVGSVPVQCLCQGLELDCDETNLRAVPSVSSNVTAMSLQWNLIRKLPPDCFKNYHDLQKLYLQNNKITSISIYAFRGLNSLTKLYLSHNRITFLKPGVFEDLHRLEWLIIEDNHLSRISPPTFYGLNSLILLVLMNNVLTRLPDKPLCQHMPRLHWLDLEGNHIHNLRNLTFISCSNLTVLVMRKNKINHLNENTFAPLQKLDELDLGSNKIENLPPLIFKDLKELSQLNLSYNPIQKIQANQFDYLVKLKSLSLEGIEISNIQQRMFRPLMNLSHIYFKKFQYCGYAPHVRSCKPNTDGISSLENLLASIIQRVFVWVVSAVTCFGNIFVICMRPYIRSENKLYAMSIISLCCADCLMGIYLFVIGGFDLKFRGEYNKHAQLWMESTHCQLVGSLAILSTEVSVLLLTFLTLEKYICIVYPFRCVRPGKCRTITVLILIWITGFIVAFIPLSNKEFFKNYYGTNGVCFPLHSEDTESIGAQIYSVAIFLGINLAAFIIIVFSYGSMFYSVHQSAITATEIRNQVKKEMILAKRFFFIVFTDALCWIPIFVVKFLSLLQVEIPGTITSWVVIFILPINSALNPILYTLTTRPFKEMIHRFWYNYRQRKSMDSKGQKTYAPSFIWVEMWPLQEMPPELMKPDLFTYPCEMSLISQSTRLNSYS

Relaxin receptor 1 = biological target: T2, Relaxin receptor 1 (Homo sapiens, UniProt Q9HBX9); experiment: Agonist activity at RXFP1 endogenously expressed in human OVCAR-5 cells assessed as increase in IBMX-induced cAMP accumulation pretreated with IBMX for 40 mins followed by compound addition and measured after 30 mins by HTRF assay; assay type: functional, cell-based
T2 sequence (Q9HBX9 whole entry): T1 sequence (whole entry)

Row | Compound | Emax [1] [%] | EC50 (Relaxin receptor 1) [µM]
1 | CC[C@H](C)[C@H](NC(=O)[C@H](CCC(N)=O)NC(=O)[C@H](C)NC(=O)[C@H](CCCNC(=N)N)NC(=O)[C@@H](NC(=O)[C@H](CC(C)C)NC(=O)[C@H](CCC(=O)O)NC(=O)[C@H](CCCNC(=N)N)NC(=O)CNC(=O)[C@H](CO)NC(=O)[C@H](CC(C)C)NC(=O)[C@H](CCCCN)NC(=O)[C@@H](NC(=O)[C@@H](NC(=O)[C@H](CCC(=O)O)NC(=O)[C@H](CCC(=O)O)NC(C)=O)C(C)C)[C@@H](C)CC)C(C)C)C(=O)N[C@@H](C)C(=O)NC[C@H](C)C(=O)N[C@@H](CO)C(=O)NCC(=O)N[C@@H](CCSC)C(=O)N[C@@H](CO)C(=O)N[C@H](C(=O)N[C@@H](Cc1c[nH]c2ccccc12)C(=O)N[C@@H](CO)C(=O)N[C@@H](CCCCN)C(=O)N[C@@H](CCCNC(=N)N)C(=O)N[C@@H](CO)C(=O)N[C@@H](CC(C)C)C(N)=O)[C@@H](C)O (HELM PEPTIDE1{[ac].E.E.V.I.K.L.S.G.R.E.L.V.R.A.Q.I.A.[C[C@@H](CN[*:1])C(=O)[*:2]].S.G.M.S.T.W.S.K.R.S.L.[am]}$$$$V2.0) | 91 | 0.2
2 | CC[C@H](C)[C@H](NC(=O)[C@H](CCC(N)=O)NC(=O)[C@H](C)NC(=O)[C@H](CCCNC(=N)N)NC(=O)[C@@H](NC(=O)[C@H](CC(C)C)NC(=O)[C@H](CCC(=O)O)NC(=O)[C@H](CCCNC(=N)N)NC(=O)CNC(=O)[C@H](CO)NC(=O)[C@H](CC(C)C)NC(=O)[C@H](CCCCN)NC(=O)[C@@H](NC(=O)[C@@H](NC(=O)[C@H](CCC(=O)O)NC(=O)[C@H](CCC(=O)O)NC(C)=O)C(C)C)[C@@H](C)CC)C(C)C)C(=O)NC[C@H](C)C(=O)N[C@H](C(=O)N[C@@H](CCC(=O)O)C(=O)NCC(=O)N[C@@H](CCSC)C(=O)N[C@@H](CO)C(=O)N[C@@H](CCCCN)C(=O)N[C@@H](Cc1c[nH]c2ccccc12)C(=O)N[C@@H](CO)C(=O)N[C@@H](CCCCN)C(=O)N[C@@H](CCCNC(=N)N)C(=O)N[C@@H](CCCCN)C(=O)N[C@@H](CCCCN)C(N)=O)[C@@H](C)CC (HELM PEPTIDE1{[ac].E.E.V.I.K.L.S.G.R.E.L.V.R.A.Q.I.[C[C@@H](CN[*:1])C(=O)[*:2]].I.E.G.M.S.K.W.S.K.R.K.K.[am]}$$$$V2.0) | 101 | 0.23
3 | CC[C@H](C)[C@H](NC(=O)[C@H](CCC(N)=O)NC(=O)[C@H](C)NC(=O)[C@H](CCCNC(=N)N)NC(=O)[C@@H](NC(=O)[C@H](CC(C)C)NC(=O)[C@H](CCC(=O)O)NC(=O)[C@H](CCCNC(=N)N)NC(=O)CNC(=O)[C@H](CO)NC(=O)[C@H](CC(C)C)NC(=O)[C@H](CCCCN)NC(=O)[C@@H](NC(=O)[C@@H](NC(=O)[C@H](CCC(=O)O)NC(=O)[C@H](CCC(=O)O)NC(C)=O)C(C)C)[C@@H](C)CC)C(C)C)C(=O)NC[C@H](C)C(=O)N[C@H](C(=O)N[C@@H](CO)C(=O)NCC(=O)N[C@@H](CCSC)C(=O)N[C@@H](CO)C(=O)N[C@H](C(=O)N[C@@H](Cc1c[nH]c2ccccc12)C(=O)N[C@@H](CO)C(=O)N[C@@H](CCCCN)C(=O)N[C@@H](CCCNC(=N)N)C(=O)N[C@@H](CO)C(=O)N[C@@H](CC(C)C)C(N)=O)[C@@H](C)O)[C@@H](C)CC (HELM PEPTIDE1{[ac].E.E.V.I.K.L.S.G.R.E.L.V.R.A.Q.I.[C[C@@H](CN[*:1])C(=O)[*:2]].I.S.G.M.S.T.W.S.K.R.S.L.[am]}$$$$V2.0) | 86 | 0.498
4 | CC[C@H](C)[C@H](NC(=O)[C@H](CCC(N)=O)NC(=O)[C@H](C)NC(=O)[C@H](CCCNC(=N)N)NC(=O)[C@@H](NC(=O)[C@H](CCCCN)NC(=O)[C@H](CCC(=O)O)NC(=O)[C@H](CCCNC(=N)N)NC(=O)CNC(=O)[C@H](CCC(=O)O)NC(=O)[C@H](CC(C)C)NC(C)=O)C(C)C)C(=O)NC[C@H](C)C(=O)NC[C@H](C)C(=O)N[C@@H](CCC(=O)O)C(=O)NCC(=O)N[C@@H](CCSC)C(=O)N[C@@H](CO)C(=O)N[C@H](C(=O)N[C@@H](Cc1c[nH]c2ccccc12)C(=O)N[C@@H](CO)C(=O)N[C@@H](CCCCN)C(=O)N[C@@H](CCCNC(=N)N)C(=O)N[C@@H](CCCCN)C(=O)N[C@@H](CCCCN)C(N)=O)[C@@H](C)O (HELM PEPTIDE1{[ac].L.E.G.R.E.K.V.R.A.Q.I.[C[C@@H](CN[*:1])C(=O)[*:2]].[C[C@@H](CN[*:1])C(=O)[*:2]].E.G.M.S.T.W.S.K.R.K.K.[am]}$$$$V2.0) | 99 | 0.023
5 | CC[C@H](C)[C@H](NC(=O)[C@H](CCC(N)=O)NC(=O)[C@H](C)NC(=O)[C@H](CCCNC(=N)N)NC(=O)[C@@H](NC(=O)[C@@H](NC(=O)[C@H](CCC(=O)O)NC(=O)[C@H](CCCNC(=N)N)NC(=O)CNC(=O)[C@H](CCC(=O)O)NC(=O)[C@H](CC(C)C)NC(=O)[C@H](CCCCN)NC(=O)[C@@H](NC(=O)[C@@H](NC(C)=O)C(C)C)[C@@H](C)CC)[C@@H](C)CC)C(C)C)C(=O)NC[C@H](C)C(=O)N[C@H](C(=O)N[C@@H](CO)C(=O)NCC(=O)N[C@@H](CCSC)C(=O)N[C@@H](CO)C(=O)N[C@H](C(=O)N[C@@H](Cc1c[nH]c2ccccc12)C(=O)N[C@@H](CO)C(=O)N[C@@H](CCCCN)C(=O)N[C@@H](CCCNC(=N)N)C(=O)N[C@@H](CCCCN)C(=O)N[C@@H](CCCCN)C(N)=O)[C@@H](C)O)[C@@H](C)CC (HELM PEPTIDE1{[ac].V.I.K.L.E.G.R.E.I.V.R.A.Q.I.[C[C@@H](CN[*:1])C(=O)[*:2]].I.S.G.M.S.T.W.S.K.R.K.K.[am]}$$$$V2.0) | 102 | 0.146

Results, then the compound that gave them:

Row | Emax [1] [%] | EC50 (Relaxin receptor 1) [µM] | Compound
6 | 95 | 0.032 | CC[C@H](C)[C@H](NC(=O)[C@H](CCC(N)=O)NC(=O)[C@H](C)NC(=O)[C@H](CCCNC(=N)N)NC(=O)[C@@H](NC(=O)[C@H](CC(C)C)NC(=O)[C@H](CCC(=O)O)NC(=O)[C@H](CCCNC(=N)N)NC(=O)CNC(=O)[C@H](CO)NC(=O)[C@H](CC(C)C)NC(=O)[C@H](CCCCN)NC(=O)[C@@H](NC(=O)[C@@H](NC(=O)[C@H](CCC(=O)O)NC(=O)[C@H](CCC(=O)O)NC(C)=O)C(C)C)[C@@H](C)CC)C(C)C)C(=O)N[C@@H](C)C(=O)NC[C@H](C)C(=O)N[C@@H](CO)C(=O)NCC(=O)N[C@@H](CCSC)C(=O)N[C@@H](CO)C(=O)N[C@H](C(=O)N[C@@H](Cc1c[nH]c2ccccc12)C(=O)N[C@@H](CO)C(=O)N[C@@H](CCCCN)C(=O)N[C@@H](CCCNC(=N)N)C(=O)N[C@@H](CCCCN)C(=O)N[C@@H](CCCCN)C(=O)O)[C@@H](C)O (HELM PEPTIDE1{[ac].E.E.V.I.K.L.S.G.R.E.L.V.R.A.Q.I.A.[C[C@@H](CN[*:1])C(=O)[*:2]].S.G.M.S.T.W.S.K.R.K.K}$$$$V2.0)
7 | 94 | 0.143 | CC[C@H](C)[C@H](NC(=O)[C@H](CCC(N)=O)NC(=O)[C@H](C)NC(=O)[C@H](CCCNC(=N)N)NC(=O)[C@@H](NC(=O)[C@H](CC(C)C)NC(=O)[C@H](CCC(=O)O)NC(=O)[C@H](CCCNC(=N)N)NC(=O)CNC(=O)[C@H](CO)NC(=O)[C@H](CC(C)C)NC(=O)[C@H](CCCCN)NC(=O)[C@@H](NC(=O)[C@@H](NC(=O)[C@H](CCC(=O)O)NC(=O)[C@H](CCC(=O)O)NC(C)=O)C(C)C)[C@@H](C)CC)C(C)C)C(=O)NC[C@H](C)C(=O)N[C@H](C(=O)N[C@@H](CO)C(=O)NCC(=O)N[C@@H](CCSC)C(=O)N[C@@H](CO)C(=O)N[C@H](C(=O)N[C@@H](Cc1c[nH]c2ccccc12)C(=O)N[C@@H](CO)C(=O)N[C@@H](CCCCN)C(=O)N[C@@H](CCCNC(=N)N)C(=O)N[C@@H](CCCCN)C(=O)N[C@@H](CCCCN)C(N)=O)[C@@H](C)O)[C@@H](C)CC (HELM PEPTIDE1{[ac].E.E.V.I.K.L.S.G.R.E.L.V.R.A.Q.I.[C[C@@H](CN[*:1])C(=O)[*:2]].I.S.G.M.S.T.W.S.K.R.K.K.[am]}$$$$V2.0)
8 | 94 | 0.037 | CC[C@H](C)[C@H](NC(=O)[C@H](CCC(N)=O)NC(=O)[C@H](C)NC(=O)[C@H](CCCNC(=N)N)NC(=O)[C@@H](NC(=O)[C@H](CC(C)C)NC(=O)[C@H](CCC(=O)O)NC(=O)[C@H](CCCNC(=N)N)NC(=O)CNC(=O)[C@H](CO)NC(=O)[C@H](CC(C)C)NC(=O)[C@H](CCCCN)NC(=O)[C@@H](NC(=O)[C@@H](NC(=O)[C@H](CCC(=O)O)NC(=O)[C@H](CCC(=O)O)NC(C)=O)C(C)C)[C@@H](C)CC)C(C)C)C(=O)NC[C@H](C)C(=O)NC[C@H](C)C(=O)N[C@@H](CO)C(=O)NCC(=O)N[C@@H](CCSC)C(=O)N[C@@H](CO)C(=O)N[C@H](C(=O)N[C@@H](Cc1c[nH]c2ccccc12)C(=O)N[C@@H](CO)C(=O)N[C@@H](CCCCN)C(=O)N[C@@H](CCCNC(=N)N)C(=O)N[C@@H](CCCCN)C(=O)N[C@@H](CCCCN)C(N)=O)[C@@H](C)O (HELM PEPTIDE1{[ac].E.E.V.I.K.L.S.G.R.E.L.V.R.A.Q.I.[C[C@@H](CN[*:1])C(=O)[*:2]].[C[C@@H](CN[*:1])C(=O)[*:2]].S.G.M.S.T.W.S.K.R.K.K.[am]}$$$$V2.0)
